Earlier results in patent US20100273829A1, “Methods for Treating Disorders Associated with Hyperlipidemia in a Mammal” (priority 2005, published 2010).
Entries after “also recorded” stand apart in the source; their conditions may differ. Read-outs that look alike come from different tables or passages of the source.

Columns and labels:
[1] = ezetimibe 10 mg/day added to maximal statin regimen (80 mg/day), hoFH patients

For `O=C(NC1CCN(CCCCC2(C(=O)NCC(F)(F)F)c3ccccc3-c3ccccc32)CC1)c1ccccc1-c1ccc(C(F)(F)F)cc1` [BMS-201038, N-(2,2,2-Trifluorethyl)-9-[4-[4-[[[4′-(trifluoromethyl)[1,1′biphenyl]-2-Yl]carbonyl]amino]-1-piperidinyl]butyl]9H-fluorene-9-carboxamide], the adverse events (patients, 25 mg/day BMS-201038 monotherapy) is given as “gastrointestinal perturbations, abnormalities in liver function, and hepatic steatosis; also recorded: gastrointestinal disorders, abnormalities in liver function and/or hepatic steatosis”.
In the case of `O=C1[C@H](CC[C@H](O)c2ccc(F)cc2)[C@@H](c2ccc(O)cc2)N1c1ccc(F)cc1` [ezetimibe], the “total reduction of LDL-C levels” value [1] is listed as 27%.
In the case of `Cc1cc(C)c2c3ccccc3n(Cc3ccc([C@@H](C(=O)N[C@H](CO)c4ccccc4)C4CCCC4)cc3)c2n1` [implitapide, (2S)-2-cyclopentyl-2-[4-[(2,4-dimethyl-9H-pyrido[2,3-b]indol-9-yl)methyl]phenyl]-N-[(1S)-2-hydroxy-1-phenylethyl]ethanamide], the therapeutic efficacy (clinical studies, implitapide 80 mg/day or greater) is given as “therapeutically effective” and the adverse events (clinical studies, implitapide 80 mg/day or greater (80 mg/day, 160 mg/day)) is given as “gastrointestinal disturbances, abnormalities in liver function, and hepatic steatosis; also recorded: gastrointestinal disorders, abnormalities in liver function and/or hepatic steatosis”.
